From paper PMC11096414 (Nature Communications, 2024)

How the values were obtained:
Type in all cases: cell-based
MAVS [1] = target: T1, MAVS (Homo sapiens, UniProt Q7Z434); test: competition with 4-OI-alk in affinity pull-down, immunoblot; details: covalent; 125 μM 4-OI for 30 min, then 125 μM 4-OI-alk for 4 h in intact 786-O cells
T1 construct: endogenous full-length protein in 786-O cells, detected by anti-MAVS immunoblot

IKKβ [2] = target: T2, IKKβ (Homo sapiens, UniProt O14920); test: as above; details: covalent; 125 μM 4-OI for 30 min, then 125 μM 4-OI-alk for 4 h in intact 786-O cells
T2 construct: gene IKBKB; endogenous full-length protein in 786-O cells, detected by anti-IKKβ immunoblot
T2 sequence (O14920 1-756): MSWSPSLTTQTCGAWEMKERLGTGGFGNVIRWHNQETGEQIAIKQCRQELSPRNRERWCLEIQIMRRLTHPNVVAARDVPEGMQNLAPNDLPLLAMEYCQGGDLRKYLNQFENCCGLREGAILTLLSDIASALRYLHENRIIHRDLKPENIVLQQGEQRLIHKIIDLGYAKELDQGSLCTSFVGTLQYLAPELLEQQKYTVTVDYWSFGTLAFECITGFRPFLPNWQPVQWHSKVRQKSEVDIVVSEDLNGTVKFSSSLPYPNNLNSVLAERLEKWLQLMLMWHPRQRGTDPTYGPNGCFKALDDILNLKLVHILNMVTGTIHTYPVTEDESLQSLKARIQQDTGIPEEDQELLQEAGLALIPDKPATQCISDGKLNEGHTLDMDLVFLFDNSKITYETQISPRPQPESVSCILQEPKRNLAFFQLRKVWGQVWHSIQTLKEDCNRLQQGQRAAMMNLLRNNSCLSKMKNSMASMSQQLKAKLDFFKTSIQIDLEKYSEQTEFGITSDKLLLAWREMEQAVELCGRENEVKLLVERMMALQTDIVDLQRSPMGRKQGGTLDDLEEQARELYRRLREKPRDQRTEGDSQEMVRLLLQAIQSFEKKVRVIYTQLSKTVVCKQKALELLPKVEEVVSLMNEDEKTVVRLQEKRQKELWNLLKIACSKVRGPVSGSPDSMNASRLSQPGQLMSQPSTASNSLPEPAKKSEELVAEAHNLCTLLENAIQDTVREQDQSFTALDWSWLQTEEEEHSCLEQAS

JAK1 = target: T3, JAK1 (Homo sapiens, UniProt P23458); test: alkyne probe labelling in cells, CuAAC to biotin azide, streptavidin pull-down, immunoblot; details: covalent; 125 μM in intact 786-O cells
T3 construct: endogenous full-length protein in 786-O cells, detected by anti-Jak1 immunoblot

MAVS [3] = target: T1, MAVS; test: as above; details: covalent; 125 μM, 4 or 24 h in intact 786-O cells
Flag-MAVS = target: T4, Flag-MAVS (Homo sapiens, UniProt Q7Z434); test: alkyne probe labelling in transfected cells, CuAAC to biotin azide, streptavidin pull-down, anti-Flag immunoblot; details: covalent; 125 μM, 4 h in intact HEK293T cells
T4 construct: Flag-tagged MAVS expressed from plasmid in HEK293T cells

IKKβ [4] = target: T2, IKKβ; test: alkyne probe labelling in cells, CuAAC to biotin azide, streptavidin pull-down, immunoblot; details: covalent; 125 μM in intact 786-O cells

T1 sequence (Q7Z434 2-540): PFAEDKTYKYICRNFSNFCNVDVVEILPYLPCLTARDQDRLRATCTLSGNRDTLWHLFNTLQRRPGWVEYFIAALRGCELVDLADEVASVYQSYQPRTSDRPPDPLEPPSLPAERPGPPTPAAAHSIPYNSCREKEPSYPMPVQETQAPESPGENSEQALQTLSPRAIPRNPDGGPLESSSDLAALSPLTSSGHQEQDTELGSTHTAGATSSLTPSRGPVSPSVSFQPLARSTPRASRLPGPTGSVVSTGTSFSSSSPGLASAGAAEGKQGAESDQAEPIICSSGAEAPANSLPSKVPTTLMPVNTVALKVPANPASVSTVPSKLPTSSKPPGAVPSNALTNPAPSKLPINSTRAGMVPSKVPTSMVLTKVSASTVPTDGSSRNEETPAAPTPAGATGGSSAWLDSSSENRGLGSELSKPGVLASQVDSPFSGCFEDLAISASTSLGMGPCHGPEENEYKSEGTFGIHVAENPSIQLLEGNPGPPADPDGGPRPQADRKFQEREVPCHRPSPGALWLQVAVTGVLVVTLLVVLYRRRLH
T3 sequence (P23458 whole entry): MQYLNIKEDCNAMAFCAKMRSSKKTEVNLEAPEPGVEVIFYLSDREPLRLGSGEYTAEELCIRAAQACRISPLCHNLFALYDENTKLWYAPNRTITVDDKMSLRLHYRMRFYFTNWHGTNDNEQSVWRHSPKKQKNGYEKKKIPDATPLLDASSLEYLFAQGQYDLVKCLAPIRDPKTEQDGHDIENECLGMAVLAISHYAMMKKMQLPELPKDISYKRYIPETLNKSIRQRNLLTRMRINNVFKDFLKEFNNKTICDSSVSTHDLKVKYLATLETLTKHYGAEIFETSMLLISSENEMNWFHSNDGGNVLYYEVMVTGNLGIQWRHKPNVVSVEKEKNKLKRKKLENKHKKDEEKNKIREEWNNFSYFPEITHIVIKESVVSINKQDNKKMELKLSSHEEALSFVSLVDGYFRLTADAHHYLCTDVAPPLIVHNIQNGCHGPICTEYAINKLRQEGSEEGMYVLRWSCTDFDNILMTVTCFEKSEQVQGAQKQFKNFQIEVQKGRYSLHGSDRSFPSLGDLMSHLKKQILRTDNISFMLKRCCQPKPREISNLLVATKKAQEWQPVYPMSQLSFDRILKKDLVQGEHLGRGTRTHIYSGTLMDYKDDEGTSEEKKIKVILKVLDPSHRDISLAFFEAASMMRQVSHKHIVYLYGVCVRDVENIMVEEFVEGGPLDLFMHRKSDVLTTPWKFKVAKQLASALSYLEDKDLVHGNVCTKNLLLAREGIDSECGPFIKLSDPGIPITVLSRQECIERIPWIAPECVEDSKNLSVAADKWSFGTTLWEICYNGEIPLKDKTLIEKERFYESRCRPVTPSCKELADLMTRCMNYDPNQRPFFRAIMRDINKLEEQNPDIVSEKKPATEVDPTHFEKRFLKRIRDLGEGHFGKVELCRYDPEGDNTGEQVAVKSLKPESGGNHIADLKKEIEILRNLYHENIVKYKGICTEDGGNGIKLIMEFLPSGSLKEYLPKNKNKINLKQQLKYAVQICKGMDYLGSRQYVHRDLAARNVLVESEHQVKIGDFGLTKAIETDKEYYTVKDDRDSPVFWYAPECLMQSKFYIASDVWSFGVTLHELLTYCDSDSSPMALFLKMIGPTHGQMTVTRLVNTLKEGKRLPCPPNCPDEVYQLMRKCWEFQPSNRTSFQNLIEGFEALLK
T4 sequence (Q7Z434 2-540): as the sequence (Q7Z434 2-540) above

SMILES	competition with 4-OI-alk in affinity pull-down, immunoblot (MAVS [1])	competition with 4-OI-alk in affinity pull-down, immunoblot (IKKβ [2])	alkyne probe labelling in cells, CuAAC to biotin azide, streptavidin pull-down, (JAK1)	alkyne probe labelling in cells, CuAAC to biotin azide, streptavidin pull-down, (MAVS [3])	alkyne probe labelling in transfected cells, CuAAC to biotin azide, streptavidin (Flag-MAVS)	alkyne probe labelling in cells, CuAAC to biotin azide, streptavidin pull-down, (IKKβ [4])
C=C(CC(=O)OCCCCCCCC)C(=O)O [4-OI, 4-octyl itaconate]	non-alkyne-tagged 4-OI to compete with 4-OI-alk led to a reduced interaction between MAVS and 4-OI-alk	non-tagged 4-OI competed with 4-OI-alk and reduced the interaction between IKKβ and 4-OI-alk				
C#CCCCCCCOC(=O)CC(=C)C(=O)O [4-OI-alk, 2-methylene-4-(oct-7-yn-1-yloxy)−4-oxobutanoic acid]			We confirmed the binding of 4-OI-alk to JAK1 in our cellular model	We observed an enrichment in 4-OI-alk labeling of MAVS, demonstrating the protein-drug interaction	partial reduction of 4-OI-alk labeling of MAVS C283A compared to MAVS wt	We further validated the interaction between IKKβ and 4-OI-alk in cancer cells by pull-down
